Results from US20200405697A1, “Antitumor Agent” (Taiho Pharmaceutical Co., Ltd, priority 2017, published 2020).

Target: T1, human RNR (histidine tagged human M1 and human M2 proteins) (Homo sapiens, UniProt P23921)
T1 construct: made in house; host or cells: Escherichia coli
T1 sequence (P23921 1-792): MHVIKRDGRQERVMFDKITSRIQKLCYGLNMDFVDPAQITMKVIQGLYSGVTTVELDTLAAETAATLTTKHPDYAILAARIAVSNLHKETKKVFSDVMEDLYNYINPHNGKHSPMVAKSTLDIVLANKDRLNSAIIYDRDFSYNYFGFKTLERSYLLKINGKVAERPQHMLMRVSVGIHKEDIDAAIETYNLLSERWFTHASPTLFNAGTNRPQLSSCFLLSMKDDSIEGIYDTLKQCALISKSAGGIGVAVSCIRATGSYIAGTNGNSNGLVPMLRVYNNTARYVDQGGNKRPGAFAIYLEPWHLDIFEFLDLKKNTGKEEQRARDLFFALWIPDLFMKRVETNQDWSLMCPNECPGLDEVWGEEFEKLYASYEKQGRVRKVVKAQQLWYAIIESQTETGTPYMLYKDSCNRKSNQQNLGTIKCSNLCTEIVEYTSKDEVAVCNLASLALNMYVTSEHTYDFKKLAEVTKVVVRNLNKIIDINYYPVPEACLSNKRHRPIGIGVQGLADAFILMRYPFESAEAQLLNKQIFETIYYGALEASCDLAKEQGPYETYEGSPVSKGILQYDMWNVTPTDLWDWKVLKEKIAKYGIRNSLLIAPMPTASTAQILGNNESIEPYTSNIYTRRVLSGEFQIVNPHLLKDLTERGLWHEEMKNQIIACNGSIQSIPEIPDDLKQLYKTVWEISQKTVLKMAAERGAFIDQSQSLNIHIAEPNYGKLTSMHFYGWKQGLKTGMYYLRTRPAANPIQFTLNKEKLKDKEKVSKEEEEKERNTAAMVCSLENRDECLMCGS
Assay: Human RNR inhibition effect (dCDP formation from CDP)
Type: biochemical
Settings: 10 μM CDP, 37° C. for 30 minutes, read-out: RNR inhibitory activity IC50
In short: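 His-tagged human M1 (isoform 1) and N-terminal 59-aa-truncated M2 (isoform 2), E. coli-expressed, Ni-purified, preincubated 20 min with compound (1% DMSO). Reaction with 10 μM CDP, 2 mM ATP, 0.24 mM NADPH, 6 mM DTT, 4 mM Mg acetate, 100 mM KCl, 50 mM HEPES pH 7.2, 30 min at 37° C. dCDP formed quantified by reverse-phase HPLC after heat stop.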

Row | IC50 [µM] | SMILES
1 | 0.18 | Cc1ccc(F)c([C@@H](C)[C@H](NS(=O)(=O)c2ccc3c(c2)C(C)(O)CCO3)c2n[nH]c(=O)o2)c1C (stereo partly drawn) [Example 195, N-((1S,2R)-2-(6-fluoro-2,3-dimethylphenyl)-1-(5-oxo-4,5-dihydro-1,3,4-oxadiazol-2-yl)propyl)-4-hydroxy-4-methylchroman-6-sulfonamide]
2 | 0.08 | Cc1ccc(F)c([C@@H](C)[C@H](NS(=O)(=O)c2cc(C(C)(C)O)c(F)cc2C(N)=O)c2n[nH]c(=O)o2)c1C [Example 196, 5-fluoro-2-(N-((1S,2R)-2-(6-fluoro-2,3-dimethylphenyl)-1-(5-oxo-4,5-dihydro-1,3,4-oxadiazol-2-yl)propyl)sulfamoyl)-4-(2-hydroxypropan-2-yl)benzamide]
3 | 0.06 | Cc1ccc(F)c([C@@H](C)[C@H](NS(=O)(=O)c2cc(C(C)(C)O)ccc2C(N)=O)c2n[nH]c(=O)o2)c1C [Example 197, 2-(N-((1S,2R)-2-(6-fluoro-2,3-dimethylphenyl)-1-(5-oxo-4,5-dihydro-1,3,4-oxadiazol-2-yl)propyl)sulfamoyl)-4-(2-hydroxypropan-2-yl)benzamide]
4 | 0.06 | Cc1ccc(F)c([C@@H](C)[C@H](NS(=O)(=O)c2cc(C(C)(C)O)c(Cl)cc2C(N)=O)c2n[nH]c(=O)o2)c1C [Example 198, 5-chloro-2-(N-((1S,2R)-2-(6-fluoro-2,3-dimethylphenyl)-1-(5-oxo-4,5-dihydro-1,3,4-oxadiazol-2-yl)propyl)sulfamoyl)-4-(2-hydroxypropan-2-yl)benzamide]
5 | 0.35 | CC#CC(O)(C#CC)c1ccc(C(N)=O)c(S(=O)(=O)N[C@H](c2n[nH]c(=O)o2)[C@H](C)c2c(F)ccc(C)c2C)c1 [Example 199]
6 | 0.17 | CC(O)c1c(Cl)ccc(S(=O)(=O)N[C@H](c2n[nH]c(=O)o2)[C@H](C)c2cccc3c2CCC3)c1Cl (stereo partly drawn) [Example 201, 2,4-dichloro-N-((1S,2R)-2-(2,3-dihydro-1H-inden-4-yl)-1-(5-oxo-4,5-dihydro-1,3,4-oxadiazol-2-yl)propyl)-3-(1-hydroxyethyl)benzenesulfonamide]
7 | 0.4 | CC(O)c1nc(S(=O)(=O)N[C@H](c2n[nH]c(=O)o2)[C@H](C)c2cccc3c2CCC3)ccc1Cl (stereo partly drawn) [Example 202, 5-chloro-N-((1S,2R)-2-(2,3-dihydro-1H-inden-4-yl)-1-(5-oxo-4,5-dihydro-1,3,4-oxadiazol-2-yl)propyl)-6-(1-hydroxyethyl)pyridine-2-sulfonamide]
8 | 0.18 | COc1c(S(=O)(=O)N[C@H](c2n[nH]c(=O)o2)[C@H](C)c2cccc(C)c2C)ccc(Cl)c1C(C)O (stereo partly drawn) [Example 203, 4-chloro-N-((1S,2R)-2-(2,3-dimethylphenyl)-1-(5-oxo-4,5-dihydro-1,3,4-oxadiazol-2-yl)propyl)-3-(1-hydroxyethyl)-2-methoxybenzenesulfonamide]
9 | 0.08 | COc1c(S(=O)(=O)N[C@H](c2n[nH]c(=O)o2)[C@H](C)c2c(F)ccc3ccccc23)ccc(Cl)c1C(C)O (stereo partly drawn) [Example 205, 4-chloro-N-((1S,2R)-2-(2-fluoronaphthalene-1-yl)-1-(5-oxo-4,5-dihydro-1,3,4-oxadiazol-2-yl)propyl)-3-(1-hydroxyethyl)-2-methoxybenzenesulfonamide]
10 | 0.15 | CCc1ccc(F)c([C@@H](C)[C@H](NS(=O)(=O)c2ccc(Cl)c(C(C)O)c2OC)c2n[nH]c(=O)o2)c1C (stereo partly drawn) [Example 206A, 4-chloro-N-((1S,2R)-2-(3-ethyl-6-fluoro-2-methylphenyl)-1-(5-oxo-4,5-dihydro-1,3,4-oxadiazol-2-yl)propyl)-3-(1-hydroxyethyl)-2-methoxybenzenesulfonamide]
11 | 0.18 | Cc1ccc(F)c([C@@H](C)[C@H](NS(=O)(=O)c2ccc(Cl)cc2C(=O)O)c2n[nH]c(=O)o2)c1C [Example 210, 5-chloro-2-(N-((1S,2R)-2-(6-fluoro-2,3-dimethylphenyl)-1-(5-oxo-4,5-dihydro-1,3,4-oxadiazol-2-yl)propyl)sulfamoyl)benzoic acid]
12 | 0.12 | Cc1ccc(F)c([C@@H](C)[C@H](NS(=O)(=O)c2cccc3c2OCCC3(O)C(F)(F)F)c2n[nH]c(=O)o2)c1C (stereo partly drawn) [Example 211A, N-((1S,2R)-2-(6-fluoro-2,3-dimethylphenyl)-1-(5-oxo-4,5-dihydro-1,3,4-oxadiazol-2-yl)propyl)-4-hydroxy-4-(trifluoromethyl)chroman-8-sulfonamide]
13 | 0.11 | COc1c(S(=O)(=O)N[C@H](c2n[nH]c(=O)o2)[C@H](C)c2c(F)ccc(C)c2C)ccc(Cl)c1C(C)(C)O [Example 212, 4-chloro-N-((1S,2R)-2-(6-fluoro-2,3-dimethylphenyl)-1-(5-oxo-4,5-dihydro-1,3,4-oxadiazol-2-yl)propyl)-3-(2-hydroxypropan-2-yl)-2-methoxybenzenesulfonamide]
14 | 0.5 | Cc1ccc(F)c([C@@H](C)[C@H](NS(=O)(=O)c2ncc(Cl)cc2C(=O)O)c2n[nH]c(=O)o2)c1C [Example 213, 5-chloro-2-(N-((1S,2R)-2-(6-fluoro-2,3-dimethylphenyl)-1-(5-oxo-4,5-dihydro-1,3,4-oxadiazol-2-yl)propyl)sulfamoyl)nicotinic acid]
15 | 0.99 | Cc1ccc(F)c([C@@H](C)[C@H](NS(=O)(=O)c2ncc(Br)cc2C(=O)O)c2n[nH]c(=O)o2)c1C [Example 214, 5-bromo-2-(N-((1S,2R)-2-(6-fluoro-2,3-dimethylphenyl)-1-(5-oxo-4,5-dihydro-1,3,4-oxadiazol-2-yl)propyl)sulfamoyl)nicotinic acid]
16 | 0.19 | Cc1ccc(F)c([C@@H](C)[C@H](NS(=O)(=O)c2ccc(Cl)c(C(=O)O)n2)c2n[nH]c(=O)o2)c1C [Example 215, 3-chloro-6-(N-((1S,2R)-2-(6-fluoro-2,3-dimethylphenyl)-1-(5-oxo-4,5-dihydro-1,3,4-oxadiazol-2-yl)propyl)sulfamoyl)picolinic acid]
17 | 0.2 | COc1c(S(=O)(=O)N[C@H](c2n[nH]c(=O)o2)[C@H](C)c2c(F)ccc(C)c2C)ncc(Cl)c1C(C)O (stereo partly drawn) [Example 216, 5-chloro-N-((1S,2R)-2-(6-fluoro-2,3-dimethylphenyl)-1-(5-oxo-4,5-dihydro-1,3,4-oxadiazol-2-yl)propyl)-4-(1-hydroxyethyl)-3-methoxypyridine-2-sulfonamide]
18 | 0.96 | Cc1ccc(F)c([C@@H](C)[C@H](NS(=O)(=O)c2cc(F)c(Cl)cc2C(=O)O)c2n[nH]c(=O)o2)c1C [Example 217, 5-chloro-4-fluoro-2-(N-((1S,2R)-2-(6-fluoro-2,3-dimethylphenyl)-1-(5-oxo-4,5-dihydro-1,3,4-oxadiazol-2-yl)propyl)sulfamoyl)benzoic acid]
19 | 0.27 | Cc1ccc(F)c([C@@H](C)[C@H](NS(=O)(=O)c2c(F)cc(Cl)cc2C(=O)O)c2n[nH]c(=O)o2)c1C [Example 219, 5-chloro-3-fluoro-2-(N-((1S,2R)-2-(6-fluoro-2,3-dimethylphenyl)-1-(5-oxo-4,5-dihydro-1,3,4-oxadiazol-2-yl)propyl)sulfamoyl)benzoic acid]
20 | 0.79 | Cc1ccc(F)c([C@@H](C)[C@H](NS(=O)(=O)c2cc3c(cc2C(=O)O)OCCO3)c2n[nH]c(=O)o2)c1C [Example 223, 7-(N-((1S,2R)-2-(6-fluoro-2,3-dimethylphenyl)-1-(5-oxo-4,5-dihydro-1,3,4-oxadiazol-2-yl)propyl)sulfamoyl)-2,3-dihydrobenzo[b][1,4]dioxin-6-Carboxylic Acid]
21 | 0.65 | CC(O)c1cc(S(=O)(=O)N[C@H](c2n[nH]c(=O)o2)[C@H](C)c2cccc3c2CCC3)ccc1Cl (stereo partly drawn) [Example 231, 4-chloro-N-((1S,2R)-2-(2,3-dihydro-1H-inden-4-yl)-1-(5-oxo-4,5-dihydro-1,3,4-oxadiazol-2-yl)propyl)-3-(1-hydroxyethyl)benzensulfonamide]
22 | 0.23 | Cc1cccc2cccc([C@@H](C)[C@H](NS(=O)(=O)c3ccc(Cl)c4c3OCCC4O)c3n[nH]c(=O)o3)c12 (stereo partly drawn) [Example 232, 5-chloro-4-hydroxy-N-((1S,2R)-2-(8-methylnaphthalene-1-yl)-1-(5-oxo-4,5-dihydro-1,3,4-oxadiazol-2-yl)propyl)chroman-8-sulfonamide]
23 | 0.13 | C[C@H](c1c(F)ccc2ccccc12)[C@H](NS(=O)(=O)c1ccc(Cl)c2c1OCCC2O)c1n[nH]c(=O)o1 (stereo partly drawn) [Example 233, 5-chloro-N-((1S,2R)-2-(2-fluoronaphthalene-1-yl)-1-(5-oxo-4,5-dihydro-1,3,4-oxadiazol-2-yl)propyl)-4-hydroxychroman-8-sulfonamide]
